The results in this text go back to ChEMBL document CHEMBL3098052, “Chemical synthesis and tyrosinase inhibitory activity of rhododendrol glycosides” (Bioorg Med Chem Lett, 2014).

The first experiment concerns the target T1, Tyrosinase (Agaricus bisporus) (UniProt O42713).
T1 sequence (whole entry): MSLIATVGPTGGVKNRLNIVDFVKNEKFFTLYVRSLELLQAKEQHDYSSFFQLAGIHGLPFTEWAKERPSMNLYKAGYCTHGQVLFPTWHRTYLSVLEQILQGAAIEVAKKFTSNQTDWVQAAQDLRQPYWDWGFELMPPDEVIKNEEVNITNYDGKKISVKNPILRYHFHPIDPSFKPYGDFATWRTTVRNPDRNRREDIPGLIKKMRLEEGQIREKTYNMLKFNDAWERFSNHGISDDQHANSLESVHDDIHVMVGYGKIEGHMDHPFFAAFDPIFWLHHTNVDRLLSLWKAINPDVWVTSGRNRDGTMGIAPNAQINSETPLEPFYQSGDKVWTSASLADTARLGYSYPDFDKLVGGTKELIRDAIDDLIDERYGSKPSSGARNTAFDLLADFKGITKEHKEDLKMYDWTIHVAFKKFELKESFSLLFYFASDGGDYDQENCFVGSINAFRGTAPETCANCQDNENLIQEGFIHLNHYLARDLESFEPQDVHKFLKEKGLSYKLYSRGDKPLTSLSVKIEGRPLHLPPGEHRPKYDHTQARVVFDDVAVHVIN
The experiment in a line: Ratio of kojic acid IC50 to compound IC50 for mushroom tyrosinase.
On to `C[C@H](CCc1ccc(O)cc1O)O[C@@H]1O[C@H](CO)[C@@H](O[C@@H]2O[C@H](CO)[C@@H](O)[C@H](O)[C@H]2O)[C@H](O)[C@H]1O`, for which the Ratio IC50 turned out to be 6.

The next experiment concerns the target T2, Tyrosinase (Agaricus bisporus, UniProt O42713).
T2 sequence (O42713 whole entry): T1 sequence (whole entry)
The experiment in a line: Inhibition of mushroom tyrosinase using L-DOPA as substrate assessed as dopachrome formation after 5 mins by spectrophotometry.
As to `C[C@H](CCc1ccc(O)cc1O)O[C@@H]1O[C@H](CO)[C@@H](O[C@@H]2O[C@H](CO)[C@@H](O)[C@H](O)[C@H]2O)[C@H](O)[C@H]1O`, the IC50 (as a rule, the concentration needed to halve the response being measured) worked out at 1.51 µM. Consider `C[C@@H](CCc1ccc(O)cc1O)O[C@@H]1O[C@H](CO)[C@@H](O)[C@H](O)[C@H]1O`, for which the IC50 is 4.72 µM. For `C[C@H](CCc1ccc(O)cc1O)O[C@@H]1OC[C@@H](O)[C@H](O)[C@H]1O`, the IC50 amounted to 1.72 µM. On the same count and under the same terms, under `C[C@@H](CCc1ccc(O)cc1O)O[C@@H]1O[C@H](CO)[C@@H](O[C@@H]2O[C@H](CO)[C@@H](O)[C@H](O)[C@H]2O)[C@H](O)[C@H]1O` stands 3.83 µM; under `C[C@@H](CCc1ccc(O)cc1O)O[C@@H]1OC[C@@H](O)[C@H](O)[C@H]1O`, 4.56 µM. As to `C[C@H](CCc1ccc(O)cc1O)O[C@@H]1O[C@H](CO)[C@@H](O)[C@H](O)[C@H]1O`, the IC50 is 2.3 µM. For `CCCCCCc1ccc(O)cc1O` [HEXYLRESORCINOL], the IC50 was 0.56 µM.
